Measurements taken from patent US10349662B2, “Insecticidal compositions and methods of using the same” (priority 2011, dated 2019).
Values after ≈ are worked out from the molar mass of the structure shown. Values joined by “and” are separate entries in the source; they are usually repeats but may differ in a detail not shown here. Equal values may be shown once. Read-outs that look alike come from different tables or passages of the source.

What was measured:
[1] = system: Aedes aegypti mosquitoes; experiment: Topical bioassay on adult female Aedes aegypti mosquitoes (knockdown 1 h, mortality 24 h; Colby calculation for combinations); assay type: in vivo
Description: Components of a composition can have a synergistic or additive effect on insecticidal activity. Components have an additive effect when the effect of the combination is equal to the sum of the effects of each individual component. In contrast, components have a synergistic effect when the effect of the combination exceeds the sum of the effects of the components when applied individually. The effect (E) of a combination of two compounds may be calculated using the Colby formula (1) (S. R. Colby, “Calculating Synergistic and Antagonistic Responses of Herbicide Combinations”, Weeds 1967, 15, 20-22):
If the actual insecticidal kill rate is the calculated value (E), then the action of the combination is additive. If the actual insecticidal kill rate exceeds the calculated value (E), then the action of the combination is super-additive, that is, a synergistic effect is present. If the insecticidal kill rate is lower than the calculated value (E), then the action of the combination is considered antagonistic.
Adult female Aedes aegypti mosquitoes were segregated in 18″×18″ screen cages based on date of eclosion, therefore the exact age of the mosquitoes were known for bioassays.
Ten female mosquitoes, aged four to six days after eclosion, were aspirated out of their respective cage and into a small glass jar. The mosquitoes were then anesthetized with CO2 gas for 30 seconds. After the adults were anesthetized, they were quickly placed on a plastic platform for treatment application. Treatments were serially diluted (using a BrandTech Scientific Transferpette S pipette (100-1000 μL), labeled centrifuge tubes, and a vortex mixer) from stocks of insecticides using reagent grade acetone as the diluent to concentrations as indicated for each treatment solution. A treatment solution may contain additional ingredients as indicated for each study.
Using a Hamilton PB00-1 Repeating Dispenser with a Hamilton 25 Microliter Syringe, 0.5 μL of each treatment solution was applied to the thorax of each mosquito. Immediately following the application of the treatment, the mosquitoes were gently transferred into a clean paper cup and covered with screen. The mesh screen prevented the mosquitoes from escaping and allowed the specimens to be viewed for ratings. A cotton ball soaked with 10% sucrose solution was inserted into a side hole of each cup for hydration and nourishment. Each treatment variable in the study was replicated three times using separate cups for each replication.
The untreated controls treatments were anesthetized for 30 seconds and gently transferred to the paper cups. The acetone treated control was treated exactly as described above except that the solution applied to each mosquito was undiluted acetone.
The condition of the mosquitoes in each cup was recorded at one hour and 24 hours after initial treatment. The condition classifications used were (1) alive and flying, (2) alive and unable to fly, or (3) dead. The percent mortality for each treatment was calculated by summing the mortalities of each replicate then calculating the percent dead from the total number of mosquitoes.
Where indicated, the mortality data were subjected to probit analysis using the Statistical Analysis System Version 9.1 program PROC PROBIT (SAS Institute (2003) PROC user's manual, version 9.1. SAS Institute, Cary, N.C.).

[2] = cited from earlier work
[3] = Aedes aegypti, topical, 24 h, read-out: % MORTALITY AFTER 24 HRS, active ingredient alone, 3%, adult, virgin, female Aedes aegypti

SMILES: CC1=CC(=O)CC(C)(C)C1 [Isophorone, isophorone]
- mortality at 3 % [1, 3]: 57%

SMILES: OCC1CC=CCC1 (stereo not shown) [3-Cyclohexene-1-methanol, 3-cyclohexene-1-methanol]
- mortality at 3 % ([1]; Aedes aegypti, topical, 24 h, read-out: % MORTALITY AFTER 24 HRS, single active, 3%): 57%

SMILES: O=[N+]([O-])NC1=NCCN1Cc1ccc(Cl)nc1 [Imidacloprid, imidacloprid, reference compound]
- mortality at 5 ng ([1]; Aedes aegypti, topical, 24 h, read-out: % MORTALITY AFTER 24 HRS, 0.005 μg): 60%
- mortality at 2.5 ng ([1]; Aedes aegypti, topical, 24 h, read-out: % MORTALITY AFTER 24 HRS, single active, 0.0025 μg): 83%
- mortality at 3 ng ([1]; Aedes aegypti, topical, 24 h, read-out: % MORTALITY AFTER 24 HRS, single active, 0.003 μg): 23%
- mortality at 5 ng ([1]; Aedes aegypti, topical, 24 h, read-out: % MORTALITY AFTER 24 HRS, single active, 0.005 μg): 30%

SMILES: CC(C)=CCC[C@]1(C)[C@H]2CC=C(C)[C@@H]1C2 (relative stereo) [Bergamotene Trans Alpha]
- Vapor Pressure (@ 25° C.) [2]: 0.028 mmHg
- Solubility (in water @ 25° C.) [2]: 0.030 µg/mL (≈ 0.147 µM)

SMILES: C=C(C)C1CC=C(CO)CC1 (racemic) [Pennyl Alcohol (racemic)]
- Vapor Pressure (@ 25° C.) [2]: 0.00478 mmHg
- Solubility (in water @ 25° C.) [2]: 471 µg/mL (≈ 3090 µM)

SMILES: CN1COCN(Cc2cnc(Cl)s2)/C1=N\[N+](=O)[O-] [Thiamethoxam, thiamethoxam, reference compound]
- mortality at 2.5 ng ([1]; Aedes aegypti, topical, 24 h, read-out: % MORTALITY AFTER 24 HRS, 0.0025 μg): 3%
- mortality at 7.5 ng ([1]; Aedes aegypti, topical, 24 h, read-out: % MORTALITY AFTER 24 HRS, single active, 0.0075 μg): 23%
- mortality at 10 ng ([1]; Aedes aegypti, topical, 24 h, read-out: % MORTALITY AFTER 24 HRS, single active, 0.01 μg): 7%

SMILES: CC1(C)C(C=C(Cl)Cl)C1C(=O)OCc1cccc(Oc2ccccc2)c1 (stereo not shown) [Permethrin, permethrin, reference compound]
- 1 hour knockdown ([1]; 0.0004 μg/mosquito): 93%
- mortality at 300 pg ([1]; Aedes aegypti, topical, 24 h, read-out: % MORTALITY AFTER 24 HRS, 0.0003 μg): 27%
- mortality at 0.0004 µg/mosquito ([1]; Aedes aegypti, topical, 24 h, read-out: % MORTALITY AFTER 24 HRS, 0.0004 μg/mosquito): 70%
- mortality at 300 pg ([1]; Aedes aegypti, topical, 24 h, read-out: % MORTALITY AFTER 24 HRS, single active, 0.0003 μg): 37%
- mortality at 400 pg ([1]; Aedes aegypti, topical, 24 h, read-out: % MORTALITY AFTER 24 HRS, single active, 0.0004 μg): 47%

SMILES: CC(C)=CC1C(C(=O)OCc2cccc(Oc3ccccc3)c2)C1(C)C (stereo not drawn) [Sumithrin, sumithrin (d-phenothrin), reference compound]
- mortality at 700 pg ([1]; Aedes aegypti, topical, 24 h, read-out: % MORTALITY AFTER 24 HRS, 0.0007 μg): 27%
- mortality at 300 pg ([1]; Aedes aegypti, topical, 24 h, read-out: % MORTALITY AFTER 24 HRS, insecticide alone, 0.0003 μg, adult, virgin, female Aedes aegypti): 27%
- mortality at 700 pg ([1]; Aedes aegypti, topical, 24 h, read-out: % MORTALITY AFTER 24 HRS, insecticide alone, 0.0007 μg, adult, virgin, female Aedes aegypti): 43%
- mortality at 700 pg ([1]; Aedes aegypti, topical, 24 h, read-out: % MORTALITY AFTER 24 HRS, single active, 0.0007 μg): 27%

SMILES: CCOc1ccc(C(C)(C)COCc2cccc(Oc3ccccc3)c2)cc1 [Etofenprox, etofenprox, reference compound]
- 1 hour knockdown ([1]; 0.001 μg/mosquito): 73%
- 1 hour knockdown ([1]; 0.002 μg/mosquito): 83%
- mortality at 0.0005 µg/mosquito ([1]; Aedes aegypti, topical, 24 h, read-out: % MORTALITY AFTER 24 HRS, 0.0005 μg/mosquito): 97%
- mortality at 0.001 µg/mosquito ([1]; Aedes aegypti, topical, 24 h, read-out: % MORTALITY AFTER 24 HRS, 0.001 μg/mosquito): 40%
- mortality at 0.002 µg/mosquito ([1]; Aedes aegypti, topical, 24 h, read-out: % MORTALITY AFTER 24 HRS, 0.002 μg/mosquito): 53%
- mortality at 1 ng ([1]; Aedes aegypti, topical, 24 h, read-out: % MORTALITY AFTER 24 HRS, single active, 0.001 μg): 40%
- mortality at 2 ng ([1]; Aedes aegypti, topical, 24 h, read-out: % MORTALITY AFTER 24 HRS, single active, 0.002 μg): 37%

SMILES: C=C(C)[C@@H]1CC=C(CO)CC1 [(S)-(−)-Perillyl alcohol]
- % MORTALITY AFTER 24 HRS ([1]; 1%): 0%
- % MORTALITY AFTER 24 HRS ([1]; 2%, listed as (S)-(−)-perillyl alcohol): 70%
- % MORTALITY AFTER 24 HRS ([1]; 2%, listed as (S)-Perillyl alcohol): 33%
- % MORTALITY AFTER 24 HRS ([1]; single active, 2%): 80% and 67%

SMILES: CC1=CCC(=C(C)C)CC1 [Terpinolene, terpinolene]
- mortality at 3 % [1, 3]: 20%

SMILES: CC1=CCCCC1 [1-Methyl-1-cyclohexene, 1-methyl-1-cyclohexene]
- mortality at 3 % [1, 3]: 40%

SMILES: C=C(C)[C@H]1CC=C(C)C(=O)C1 [(S)-(+)-Carvone]
- % MORTALITY AFTER 24 HRS ([1]; 3%): 13%
- % MORTALITY AFTER 24 HRS ([1]; single active, 3%): 7% and 17%
